Experimental data from patent US10188636B2 (Cipla (UK) Limited, priority 2015, dated 2019).

Columns and labels:
[1] = test system: primary rat mixed cortical cultures; assay: Aβ1-42-induced cell death (LDH release) in primary mixed cortical cultures; assay type: cell-based; conditions: 37° C., 5% CO2, 72 hours, varied concentrations, FIG. 1
Description: Mixed cortical cultures are prepared from E18 Wistar rat embryos. The cortices are dissected out and tissue cut into small pieces. The cells are separated by 15-min incubation with DNase and papain. The cells are collected by centrifugation (1500 rpm, 5 min). […] After 3-4 h, the medium is changed to MEM (2 g/L glucose) supplemented with 2 mM glutamine, 10 μg/mL gentamicin, 5% HS-HI. After three days in vitro, medium containing MEM (Minimum Essential Media) (2 g/L glucose) supplemented with glutamine, gentamicin and 5% […] is changed to the cells. On day 6 in vitro, the unwanted cell division is inhibited by adding cytosine arabinoside (10 μM final concentration) for 24 h. The cultures refed with MEM (2 g/L glucose) supplemented with glutamine, gentamicin and 5% HS-HI before experiments. Aß1-42 Exposure The wells in good shape are chosen for experiment on day 10 in vitro. Test compounds are diluted in MEM (2 g/L glucose) supplemented with L-glutamine, gentamicin, and 5% HS-HI. […] The absorbance at 340 nm is measured immediately using a 3-min kinetic measurement protocol in Multiskan FC ELISA reader (Thermo, Finland). The change in absorbance/min is determined, which is directly proportional to the released LDH (=cell death).

histamine H3 receptors = histamine H3 receptors (Homo sapiens, UniProt Q9Y5N1); conditions: general statement in description; cited from earlier work
APPSwDI/NOS2−/− mice = assay: Contextual Fear Conditioning test in APPSwDI/NOS2−/− transgenic mice; assay type: in vivo; conditions: once-a-day p.o., after two months of treatment, vs vehicle, FIG. 2
Description: -/- are double transgenic mice which display […] spatial memory, neuronal loss and neurofibrillary tangle like pathology. […] Treatment was continued for 2.5 months. After two months of treatment, starting at the age of 14.5 months the mice were subjected to Contextual Fear Conditioning (CFC) test. The test was performed as follows Training consisted of placing a mouse in a chamber, bright house light on, and allowing exploration for 2 min. Afterward an auditory cue (1700 Hz, 80 dB, conditioned stimulus (CS)) was presented for 15 s. A 2 s foot shock (1.5 mA; unconditioned stimulus (US)) was administered for the final 2 s of the CS. This procedure was repeated, and the mouse was removed from the chamber 30 s later. Twenty hours (±30 min) after the training, the mouse was returned to the same chamber in which the training occurred (memory for context), and freezing behavior was recorded by a computerized camera tracking system. The automated Freeze Frame system, which digitized the video signal at 4 Hz and compared movement of the mouse frame by frame, was used to score the amount of freezing. At the end of the 5 min context test, the mouse was returned to its home cage. Freezing scores for each subject were expressed as a percentage for memory for context.

GFAP = GFAP immunohistochemistry in icv streptozotocin-induced Alzheimer's disease model; assay type: in vivo; conditions: icv-STZ mice, oral once daily day 0 to day 14; betahistine 30 and 100 mg/kg, donepezil 0.5 mg/kg; compared with Vehicle group; FIG. 3
Description: (§1) Seven-week-old male C57BL/6 mice were obtained from Japan SLC, (Japan). The animals were maintained in a SPF facility under controlled conditions of temperature (23±2° C.), humidity (45±10%), lighting (12-hour artificial light and dark cycles; light from 8:00 to 20:00) and air exchange. On day 0 and day 2, 60 mice were anesthetized with pentobarbital sodium (Kyoritsu Seiyalu, Japan) and intracerebroventricularly (icy) administered two doses of streptozotocin (STZ, Sigma-Aldrich, USA) in saline at a dose of 3 mg/kg. The icv-STZ-induced Alzheimer's disease model mice were divided into 6 groups of 10 mice based on their body weight on the day before the start of the treatment.

MAP2 = MAP2 mRNA expression by quantitative RT-PCR in icv streptozotocin-induced Alzheimer's disease model; assay type: in vivo, mice; conditions: for Expression levels of MAP2 gene (Mean ± SD): relative mRNA normalized to GAPDH, Vehicle 1.0 ± 0.4
Description: as §1
Expression levels of MAP2, a cytoskeletal modulator that has been implicated in the pathogenesis of Alzheimer's disease and a member of MAP2/tau family, was measured by quantitative RT-PCR. Total RNA was extracted from brain samples using RNAiso (Takara Bio, Japan) according to the manufacturer's instructions. One μg of RNA was reverse-transcribed using a reaction mixture containing 4.4 mM MgCl2 (F. Hoffmann-La Roche, Switzerland), 40 U RNase inhibitor (Toyobo, Japan), 0.5 mM dNTP (Promega, USA), 6.28 μM random hexamer (Promega), 5× first strand buffer (Promega), 10 mM dithiothreitol (Invitrogen, USA) and 200 U MMLV-RT (Invitrogen) in a final volume of 20 μL. The reaction was carried out for 1 hour at 37° C., followed by 5 minutes at 99° C. Real-time PCR was performed using real-time PCR DICE and SYBR premix Taq (Takara Bio). To calculate the relative mRNA expression level, the expression of each gene was normalized to that of reference gene GAPDH.

Chain of histamine H3 receptors (Q9Y5N1 whole entry): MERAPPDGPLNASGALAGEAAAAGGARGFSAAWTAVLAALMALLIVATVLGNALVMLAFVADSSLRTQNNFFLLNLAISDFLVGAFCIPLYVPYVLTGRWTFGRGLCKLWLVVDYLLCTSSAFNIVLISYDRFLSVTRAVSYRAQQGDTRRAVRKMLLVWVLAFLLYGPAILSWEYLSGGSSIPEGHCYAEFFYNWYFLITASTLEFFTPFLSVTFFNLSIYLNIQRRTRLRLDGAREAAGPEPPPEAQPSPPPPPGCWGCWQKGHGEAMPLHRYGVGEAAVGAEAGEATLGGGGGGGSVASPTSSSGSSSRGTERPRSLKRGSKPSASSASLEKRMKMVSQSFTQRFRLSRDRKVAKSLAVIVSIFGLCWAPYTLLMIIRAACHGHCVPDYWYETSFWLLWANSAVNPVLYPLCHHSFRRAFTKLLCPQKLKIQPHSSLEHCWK

CNCCc1ccccn1 [Betahistine]
protective effect against Aβ 1-42-induced cell death [1]: profound protective effect
affinity as an antagonist for histamine H3 receptors (histamine H3 receptors): very strong affinity
Freezing score (memory for context) (APPSwDI/NOS2−/− mice): improved freezing score
GFAP-positive area (GFAP): significant decreases
Expression levels of MAP2 gene (Mean ± SD) (MAP2; Betahistine high dose (100 mg/kg p.o. once daily day 0-14), n = 10): 0.7 ± 0.2
Expression levels of MAP2 gene (Mean ± SD) (MAP2; Betahistine low dose (30 mg/kg p.o. once daily day 0-14), n = 10): 0.7 ± 0.2
MAP2 mRNA expression (in words) (MAP2; icv-STZ mice brain, oral once daily day 0 to day 14, normalized to GAPDH): significant down regulation

COc1cc2c(cc1OC)C(=O)C(CC1CCN(Cc3ccccc3)CC1)C2 (stereo not drawn) [Donepezil, donepezil]
GFAP-positive area (GFAP): significant decreases
Expression levels of MAP2 gene (Mean ± SD) (MAP2; Donepezil 0.5 mg/kg p.o. once daily day 0-14, n = 10): 0.7 ± 0.2
